Test results reported in PubChem BioAssay (NCI).
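Growth conditions: 96-well plates. Treatment: test compound, 48 hours, 5 concentrations. Analysis: linear interpolation between bracketing concentrations; unreached endpoints set to highest concentration. Abbreviation: GI50, concentration required for 50% inhibition of growth. TGI: total growth inhibition.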

Experiments:
Assay in all cases: DTP human tumour cell line panel, 48 h
[1] = tested on: SF-539 CNS
[2] = tested on: CCRF-CEM leukemia
[3] = tested on: HCT-15 colon
[4] = tested on: RXF 393 renal
[5] = tested on: LOX IMVI melanoma
[6] = tested on: NCI-H226 lung
[7] = tested on: IGROV1 ovarian
[8] = tested on: T-47D breast
[9] = tested on: BT-549 breast
[10] = tested on: HL-60(TB) leukemia
[11] = tested on: OVCAR-5 ovarian
[12] = tested on: HCT-116 colon
[13] = tested on: PC-3 prostate
[14] = tested on: SNB-19 CNS
[15] = tested on: NCI-H23 lung
[16] = tested on: NCI-H460 lung
[17] = tested on: COLO 205 colon
[18] = tested on: K-562 leukemia
[19] = tested on: UACC-257 melanoma
[20] = tested on: HCC-2998 colon
[21] = tested on: U251 CNS
[22] = tested on: OVCAR-8 ovarian
[23] = tested on: HOP-92 NSCLC
[24] = tested on: M14 melanoma
[25] = tested on: MCF7 breast
[26] = tested on: SK-MEL-5 melanoma
[27] = tested on: EKVX NSCLC
[28] = tested on: NCI-H522 lung
[29] = tested on: SNB-75 CNS
[30] = tested on: SR leukemia
[31] = tested on: MALME-3M melanoma
[32] = tested on: KM12 colon
[33] = tested on: SN12C renal
[34] = tested on: UACC-62 melanoma
[35] = tested on: SF-295 CNS
[36] = tested on: CAKI-1 renal
[37] = tested on: SF-268 CNS
[38] = tested on: MDA-MB-435
[39] = tested on: TK-10 renal
[40] = tested on: DU-145 prostate
[41] = tested on: A498 renal
[42] = tested on: OVCAR-4 ovarian
[43] = tested on: A549 NSCLC
[44] = tested on: HS 578T breast
[45] = tested on: UO-31 renal
[46] = tested on: SK-MEL-2 melanoma
[47] = tested on: HT29 colon
[48] = tested on: MOLT-4 leukemia
[49] = tested on: ACHN renal
[50] = tested on: SK-MEL-28 melanoma
[51] = tested on: MDA-MB-231 breast
[52] = tested on: SW-620 colon
[53] = tested on: NCI/ADR-RES ovarian
[54] = tested on: 786-0 renal
[55] = tested on: HOP-62 NSCLC
[56] = tested on: RPMI-8226 leukemia
[57] = tested on: SK-OV-3 ovarian
[58] = tested on: OVCAR-3 ovarian

CCCCCc1ccc(S(=O)(=O)Nc2cc(-c3csc(NC(=O)CN4CCN(C)CC4)n3)ccc2N2CCN(C)CC2)cc1
GI50 [1]: 860 nM
TGI [1]: 1620 nM
GI50 [2]: 792 nM
TGI [2]: 3380 nM
GI50 [3]: 733 nM
TGI [3]: 1620 nM
GI50 [4]: 792 nM
TGI [4]: 1590 nM
GI50 [5]: 842 nM
TGI [5]: 1610 nM
GI50 [6]: 3000 nM
TGI [6]: 9350 nM
GI50 [7]: 1120 nM
TGI [7]: 2610 nM
GI50 [8]: 829 nM
TGI [8]: 1620 nM
GI50 [9]: 4070 nM
TGI [9]: 11100 nM
GI50 [10]: 1000 nM
TGI [10]: 2350 nM
GI50 [11]: 1250 nM
TGI [11]: 3310 nM
GI50 [12]: 735 nM
TGI [12]: 1490 nM
GI50 [13]: 1200 nM
TGI [13]: 3490 nM
GI50 [14]: 1380 nM
TGI [14]: 4110 nM
GI50 [15]: 1400 nM
TGI [15]: 4370 nM
GI50 [16]: 966 nM
TGI [16]: 1860 nM
GI50 [17]: 924 nM
TGI [17]: 1860 nM
GI50 [18]: 166 nM
TGI [18]: 5530 nM
GI50 [19]: 909 nM
TGI [19]: 1710 nM
GI50 [20]: 877 nM
TGI [20]: 1780 nM
GI50 [21]: 834 nM
TGI [21]: 1650 nM
GI50 [22]: 966 nM
TGI [22]: 1950 nM
GI50 [23]: 909 nM
TGI [23]: 3410 nM
GI50 [24]: 895 nM
TGI [24]: 1710 nM
GI50 [25]: 893 nM
TGI [25]: 1840 nM
GI50 [26]: 900 nM
TGI [26]: 1640 nM
GI50 [27]: 1970 nM
TGI [27]: 7470 nM
GI50 [28]: 909 nM
TGI [28]: 1720 nM
GI50 [29]: 2110 nM
TGI [29]: 4480 nM
GI50 [30]: 173 nM
TGI [30]: 930 nM
GI50 [31]: 879 nM
TGI [31]: 1670 nM
GI50 [32]: 1160 nM
TGI [32]: 2670 nM
GI50 [33]: 1060 nM
TGI [33]: 2370 nM
GI50 [34]: 912 nM
TGI [34]: 1740 nM
GI50 [35]: 956 nM
TGI [35]: 1930 nM
GI50 [36]: 895 nM
TGI [36]: 1970 nM
GI50 [37]: 941 nM
TGI [37]: 2010 nM
GI50 [38]: 910 nM
TGI [38]: 1760 nM
GI50 [39]: 2920 nM
TGI [39]: 7140 nM
GI50 [40]: 1520 nM
TGI [40]: 4640 nM
GI50 [41]: 2900 nM
TGI [41]: 9030 nM
GI50 [42]: 1010 nM
TGI [42]: 2340 nM
GI50 [43]: 1250 nM
TGI [43]: 3720 nM
GI50 [44]: 1050 nM
TGI [44]: 2420 nM
GI50 [45]: 818 nM
TGI [45]: 1670 nM
GI50 [46]: 853 nM
TGI [46]: 1610 nM
GI50 [47]: 872 nM
TGI [47]: 1810 nM
GI50 [48]: 1120 nM
TGI [48]: 3740 nM
GI50 [49]: 1140 nM
TGI [49]: 2640 nM
GI50 [50]: 926 nM
TGI [50]: 1690 nM
GI50 [51]: 913 nM
TGI [51]: 1830 nM
GI50 [52]: 853 nM
TGI [52]: 1640 nM
GI50 [53]: 1380 nM
TGI [53]: 3960 nM
GI50 [54]: 826 nM
TGI [54]: 1570 nM
GI50 [55]: 954 nM
TGI [55]: 1990 nM
GI50 [56]: 1030 nM
TGI [56]: 2660 nM
GI50 [57]: 1110 nM
TGI [57]: 2670 nM

CCN1CCN(S(=O)(=O)c2oc(-c3ccc(Cl)cc3)nc2C#N)CC1
GI50 [1]: 6470 nM
TGI [1]: 19800 nM
GI50 [2]: 1000 nM
TGI [2]: 8750 nM
GI50 [3]: 1760 nM
TGI [3]: 3920 nM
GI50 [4]: 1890 nM
TGI [4]: 3500 nM
GI50 [5]: 1130 nM
TGI [5]: 2540 nM
GI50 [6]: 2460 nM
TGI [6]: 7010 nM
GI50 [7]: 15800 nM
TGI [7]: 37000 nM
GI50 [8]: 2240 nM
TGI [8]: 6240 nM
GI50 [9]: 4870 nM
TGI [9]: 18500 nM
GI50 [11]: 14500 nM
TGI [11]: 29400 nM
GI50 [12]: 2120 nM
TGI [12]: 6980 nM
GI50 [13]: 13300 nM
TGI [13]: 26900 nM
GI50 [14]: 15700 nM
TGI [14]: 29300 nM
GI50 [16]: 15800 nM
TGI [16]: 39900 nM
GI50 [17]: 2070 nM
TGI [17]: 3760 nM
GI50 [19]: 10800 nM
TGI [19]: 23100 nM
GI50 [20]: 15800 nM
TGI [20]: 31400 nM
GI50 [21]: 14900 nM
TGI [21]: 30900 nM
GI50 [22]: 12900 nM
TGI [22]: 27200 nM
GI50 [23]: 2750 nM
TGI [23]: 10100 nM
GI50 [24]: 3500 nM
TGI [24]: 15700 nM
GI50 [25]: 2300 nM
TGI [25]: 10400 nM
GI50 [26]: 15900 nM
TGI [26]: 29600 nM
GI50 [27]: 16000 nM
TGI [27]: 29800 nM
GI50 [28]: 1480 nM
TGI [28]: 3060 nM
GI50 [29]: 14100 nM
TGI [29]: 27400 nM
GI50 [31]: 2070 nM
TGI [31]: 4120 nM
GI50 [32]: 15700 nM
TGI [32]: 42800 nM
GI50 [33]: 11400 nM
TGI [33]: 24500 nM
GI50 [34]: 11200 nM
TGI [34]: 24200 nM
GI50 [35]: 17300 nM
TGI [35]: 31800 nM
GI50 [36]: 1380 nM
TGI [36]: 2740 nM
GI50 [37]: 11800 nM
TGI [37]: 41300 nM
GI50 [38]: 4470 nM
TGI [38]: 16300 nM
GI50 [39]: 12800 nM
TGI [39]: 25800 nM
GI50 [40]: 7580 nM
TGI [40]: 21000 nM
GI50 [41]: 29400 nM
TGI [41]: 82400 nM
GI50 [42]: 4040 nM
TGI [42]: 23400 nM
GI50 [43]: 17800 nM
TGI [43]: 35100 nM
GI50 [58]: 1950 nM
TGI [58]: 3740 nM
GI50 [44]: 20900 nM
TGI [44]: 69400 nM
GI50 [45]: 4100 nM
TGI [45]: 15900 nM
GI50 [46]: 14500 nM
TGI [46]: 28300 nM
GI50 [49]: 1910 nM
TGI [49]: 3420 nM
GI50 [50]: 3600 nM
TGI [50]: 12300 nM
GI50 [51]: 14500 nM
TGI [51]: 29100 nM
GI50 [52]: 1690 nM
TGI [52]: 4170 nM
GI50 [53]: 18700 nM
TGI [53]: 62700 nM
GI50 [54]: 2780 nM
TGI [54]: 8190 nM
GI50 [55]: 17200 nM
TGI [55]: 33600 nM
GI50 [56]: 3260 nM
TGI [56]: 13500 nM
GI50 [57]: 18700 nM
TGI [57]: 36900 nM
